Results on two compounds are retold here after PubChem BioAssay AID2060342 (Molecular Pharmacology Branch, DTP, NCI, 2025).

The assay deals with 171881-019-R-J1-PDC multicell spheroid viability. The assay can be described thus: Anticancer human tumor 171881-019-R-J1-PDC patient-derived invasive breast carcinoma cell line growth inhibition [IpAb]. Particulars: for viability, T/C: stronger effect = lower value. The essentials:
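Combinations with ipatasertib or abemaciclib were tested on tumour spheroids holding HUVEC (25%) and MSC (15%) alongside 60% malignant cells. Top concentration was at or near clinical Cmax (10 microM if undefined), descending in half-log steps.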

The pIC50 is the negative decadic logarithm of the IC50, by convention in mol/L. Broadly, the viability, T/C is the result in the treated group divided by that in the control group, in per cent.

Each structure is given as a SMILES string. pIC50: −log10 of the molar value. Several values for one entry are separate records, joined by “and”; a condition that tells them apart may be missing. Identical values can stand only once. Bounds are passed on as bounds.
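Note: spheroids exposed to the agents for seven days before readout.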

Turning to `COc1c(OCCCN2CCOCC2)ccc2c3n(c(=NC(=O)c4cnc(N)nc4)nc12)CCN3` + CCN1CCN(Cc2ccc(Nc3ncc(F)c(-c4cc(F)c5nc(C)n(C(C)C)c5c4)n3)nc2)CC1, the negative-log IC50 (pIC50) is 7.71 (curve of first compound, second compound 0.01 µM); 7.68 (curve of first compound, second compound 0.0316 µM); 7.69 (curve of first compound, second compound 0.1 µM); 7.63 (curve of first compound, second compound 0.316 µM); 7.50 (curve of first compound, second compound 1 µM). Also, the viability, T/C by setting is: (second compound 0.01 µM, first compound 0.00316 µM) 115%; (second compound 0.01 µM, first compound 0.01 µM) 76.6%; (second compound 0.01 µM, first compound 0.0316 µM) 31.9%; (second compound 0.01 µM, first compound 0.1 µM) 5.33%; (second compound 0.01 µM, first compound 0.316 µM) 1%; (second compound 0.01 µM, first compound 1 µM) 1.29%. The viability, T/C is 113% (second compound 0.0316 µM, first compound 0.00316 µM); 76.2% (second compound 0.0316 µM, first compound 0.01 µM); 38.7% (second compound 0.0316 µM, first compound 0.0316 µM); 4.99% (second compound 0.0316 µM, first compound 0.1 µM); 1% (second compound 0.0316 µM, first compound 0.316 µM); 1.5% (second compound 0.0316 µM, first compound 1 µM). The viability, T/C is, setting by setting: (second compound 0.1 µM, first compound 0.00316 µM) 115%; (second compound 0.1 µM, first compound 0.01 µM) 80.2%; (second compound 0.1 µM, first compound 0.0316 µM) 31.9%; (second compound 0.1 µM, first compound 0.1 µM) 5.31%; (second compound 0.1 µM, first compound 0.316 µM) 0.99%; (second compound 0.1 µM, first compound 1 µM) 1.13%. For the same compound, the viability, T/C reads like this: (second compound 0.316 µM, first compound 0.00316 µM) 110%; (second compound 0.316 µM, first compound 0.01 µM) 76.1%; (second compound 0.316 µM, first compound 0.0316 µM) 45.3%; (second compound 0.316 µM, first compound 0.1 µM) 7.2%; (second compound 0.316 µM, first compound 0.316 µM) 1.95%; (second compound 0.316 µM, first compound 1 µM) 1.08%. The viability, T/C runs as follows: (second compound 1 µM, first compound 0.00316 µM) 121%; (second compound 1 µM, first compound 0.01 µM) 82.6%; (second compound 1 µM, first compound 0.0316 µM) 56.6%; (second compound 1 µM, first compound 0.1 µM) 17.2%; (second compound 1 µM, first compound 0.316 µM) 4.08%; (second compound 1 µM, first compound 1 µM) 2%.
Turning to `CC(=O)c1c(C)c2cnc(Nc3ccc(N4CCNCC4)cn3)nc2n(C2CCCC2)c1=O`, the viability, T/C reads like this: (compound 0.000949 µM) 103% and 97.8%; (compound 0.003 µM) 92.6% and 92.2%; (compound 0.00949 µM) 102% and 103%; (compound 0.03 µM) 99.4% and 94%; (compound 0.0949 µM) 105% and 96.1%; (compound 0.3 µM) 115% and 105%. The negative-log IC50 (pIC50) (curve of compound) is less than 6.52.
